Experimental data taken from patent US4620014A, “2-furylbutyrolactones and methods for using same” (priority 1983, dated 1986).
Read-outs that look alike come from different tables or passages of the source.

What was measured:
[1] = test system: spleen lymphocytes of BDF1 mice; settings: 7 days
Description: (§1) The purpose of this assay is to challenge lymphocytes in microcultures with one or more polyclonal mitogens at concentrations that will induce mitogenesis within 72 hours of stimulation.
(§2) In the mouse model, spleens are removed from different strains of mice and the spleen cells are teased free and suspended in RPMI-1640 tissue culture medium at a concentration of usually 1×10^7 ml. These cells are dispensed at a concentration of 5.0×10^5 cells per microculture well in a 96 well flat bottom 96 well tissue culture plate. All testing of the compounds of this invention or mitogens are done in replicates of 10. The cells are then treated with PHA, Con-A, specific antigens, or buffer only. If in vitro testing is done, varying concentrations of the compounds of this invention or buffer only are added to the cells as well. After treatment with the mitogens and/or compounds of this invention, the cells are incubated for 72 hours. The response of these cells to mitogens and/or the compounds of this invention is assessed using ^14 C-thymidine labeling on the fourth day at a concentration of 0.01 μCi/well. The labeled cells are harvested using a lymphocyte harvestor and placed onto fibrous paper discs. A scintillation cocktail is added to vials contaning the discs and the results are obtained using a LKB-liquid scintillation counter (Model 1216/Rackbeta II). The data is expressed as a ratio of the cpm of the mitogen stimulated group to the control (non-mitogen) treated group=lymphocyte stimulation index (LSI).
The lymphocyte stimulation assay may be performed directly on spleen cells obtained from various strains of mice not treated with the compounds of this invention or on lymphocytes obtained from […]. […] Alternatively, the mice may be treated in vivo with the compounds of this invention by intraperitoneal multi-dose schedules, followed by sacrifice and harvesting spleen lymphocytes. These cells are then tested for their response to polyclonal mitogens or specific antigens used to immunize the mice. In this sytem however, no additional compound is added to the in vitro lymphocyte stimulation assay system.
Two strains of mice, C57BL/6 and BDF1 are treated for seven days with i.p. administration of either 25, 50, 100, 200, or 400 mg/kg of Cpd. 1 or just buffer. This is followed on the eighth day by a lymphocyte stimulation assay.

[2] = test system: spleen lymphocytes of BALB/C mice; settings: 4 days
Description: as §1
as §2, with “A scintillation cocktail is added to vials contaning the discs and the results are obtained using a LKB-liquid scintillation counter (Model 1216/Rackbeta II).” left out, “(LSI). […]” for “(LSI).”

## Cc1ccc(C2(O)C(=O)OC3C(O)COC32O)o1.Cc1ccc(C2(O)C(=O)OC3C(O)COC32O)o1.O=C1CCC(=O)O1 (stereo not drawn) [Cpd. 1]
[1]; 400 mg/kg i.p.
  Con-A response: slight suppression of the Con-A response
  PHA response: strong suppression of the PHA response
[1]; 50 and 100 mg/kg i.p.
  T-lymphocyte proliferation, PHA: stimulation of T-lymphocyte proliferation
[1]; between 50 and 100 mg/kg i.p.
  Con-A response: significantly increased
[2]; 400 mg/kg, compared to 200 mg/kg
  DNA synthesis of spleen cell lymphocytes: suppress DNA synthesis
[2]; 50, 100 and 200 mg/kg i.p.
  lymphocyte DNA synthesis, PHA and Con-A: tend to stimulate lymphocyte DNA synthesis
